Reference: ChEMBL document CHEMBL1133452, “Identification of novel purine and pyrimidine cyclin-dependent kinase inhibitors with distinct molecular interactions and tumor cell growth inhibition profiles” (J Med Chem, 2000)

Experiments:
NCI = test: cells; settings: Homo sapiens, read-out: Mean GI50
Description: Inhibition of NCI cell line proliferation

[1] = target: Cyclin-dependent kinase 2 (Homo sapiens, UniProt P24941); test: Inhibition of Cyclin-dependent kinase 2 enzyme from starfish oocytes; design: species or system Marthasterias glacialis, Oocyte
[2] = target: Cyclin-dependent kinase 1/cyclin B (Homo sapiens, UniProt O95067+P06493+P14635+Q8WWL7); test: Inhibition of Cyclin-dependent kinase 1 enzyme from starfish oocytes; design: species or system Marthasterias glacialis, Oocyte
Cyclin-dependent kinase 1/cyclin B, sequence (P06493 whole entry): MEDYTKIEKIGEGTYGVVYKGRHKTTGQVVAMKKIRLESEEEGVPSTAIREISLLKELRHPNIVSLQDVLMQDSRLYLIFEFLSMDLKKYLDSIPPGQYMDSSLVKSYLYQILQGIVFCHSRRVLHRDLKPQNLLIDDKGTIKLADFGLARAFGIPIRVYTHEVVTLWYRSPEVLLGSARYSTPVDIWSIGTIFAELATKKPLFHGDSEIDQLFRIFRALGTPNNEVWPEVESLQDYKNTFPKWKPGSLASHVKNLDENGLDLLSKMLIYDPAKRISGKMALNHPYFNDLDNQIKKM
Cyclin-dependent kinase 1/cyclin B, sequence (P14635 whole entry): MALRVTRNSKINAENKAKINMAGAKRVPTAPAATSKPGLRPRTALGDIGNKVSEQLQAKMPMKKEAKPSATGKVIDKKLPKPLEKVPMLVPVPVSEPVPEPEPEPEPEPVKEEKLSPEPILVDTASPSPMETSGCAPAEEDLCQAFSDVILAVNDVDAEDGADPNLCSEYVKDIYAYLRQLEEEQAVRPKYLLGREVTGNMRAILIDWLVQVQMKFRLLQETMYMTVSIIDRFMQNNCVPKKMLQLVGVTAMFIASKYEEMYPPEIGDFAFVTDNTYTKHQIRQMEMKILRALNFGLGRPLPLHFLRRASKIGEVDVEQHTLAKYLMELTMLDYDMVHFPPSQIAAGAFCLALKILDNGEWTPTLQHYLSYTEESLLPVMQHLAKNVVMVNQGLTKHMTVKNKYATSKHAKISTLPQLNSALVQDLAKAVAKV
Cyclin-dependent kinase 1/cyclin B, sequence (Q8WWL7 whole entry): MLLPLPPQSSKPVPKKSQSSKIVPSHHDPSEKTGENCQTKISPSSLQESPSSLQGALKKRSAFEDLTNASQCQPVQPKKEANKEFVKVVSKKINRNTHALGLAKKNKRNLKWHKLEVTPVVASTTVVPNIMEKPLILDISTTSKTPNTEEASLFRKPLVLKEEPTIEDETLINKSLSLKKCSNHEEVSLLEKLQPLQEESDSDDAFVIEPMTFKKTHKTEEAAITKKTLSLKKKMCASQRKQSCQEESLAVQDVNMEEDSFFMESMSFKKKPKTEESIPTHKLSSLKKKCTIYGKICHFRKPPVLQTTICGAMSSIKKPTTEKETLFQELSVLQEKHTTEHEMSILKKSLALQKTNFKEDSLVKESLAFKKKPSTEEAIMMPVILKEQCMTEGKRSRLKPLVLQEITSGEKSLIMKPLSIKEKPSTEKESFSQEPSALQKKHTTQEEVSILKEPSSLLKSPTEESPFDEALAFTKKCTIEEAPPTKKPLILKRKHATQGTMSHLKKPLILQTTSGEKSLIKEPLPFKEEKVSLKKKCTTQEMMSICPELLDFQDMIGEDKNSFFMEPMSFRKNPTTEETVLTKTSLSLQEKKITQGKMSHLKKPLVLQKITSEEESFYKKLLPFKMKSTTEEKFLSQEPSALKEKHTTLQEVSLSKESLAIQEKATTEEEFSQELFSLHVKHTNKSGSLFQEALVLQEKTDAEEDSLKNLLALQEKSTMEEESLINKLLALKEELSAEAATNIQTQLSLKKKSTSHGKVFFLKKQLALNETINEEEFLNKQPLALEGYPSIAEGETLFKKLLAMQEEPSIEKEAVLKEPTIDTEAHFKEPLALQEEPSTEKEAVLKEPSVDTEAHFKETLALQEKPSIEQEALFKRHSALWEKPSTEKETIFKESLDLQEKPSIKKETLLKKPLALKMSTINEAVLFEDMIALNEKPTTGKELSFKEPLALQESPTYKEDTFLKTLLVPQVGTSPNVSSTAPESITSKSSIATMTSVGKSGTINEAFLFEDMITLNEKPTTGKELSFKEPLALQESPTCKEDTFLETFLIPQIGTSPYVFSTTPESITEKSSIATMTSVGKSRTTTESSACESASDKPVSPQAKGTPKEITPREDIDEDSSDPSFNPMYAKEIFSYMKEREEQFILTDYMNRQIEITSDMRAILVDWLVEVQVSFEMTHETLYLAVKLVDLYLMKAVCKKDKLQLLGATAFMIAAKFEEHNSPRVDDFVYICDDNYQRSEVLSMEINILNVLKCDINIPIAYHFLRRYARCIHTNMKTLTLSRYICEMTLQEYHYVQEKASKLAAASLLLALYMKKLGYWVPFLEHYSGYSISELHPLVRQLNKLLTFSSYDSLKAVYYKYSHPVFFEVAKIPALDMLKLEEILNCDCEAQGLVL
Cyclin-dependent kinase 1/cyclin B, sequence (O95067 whole entry): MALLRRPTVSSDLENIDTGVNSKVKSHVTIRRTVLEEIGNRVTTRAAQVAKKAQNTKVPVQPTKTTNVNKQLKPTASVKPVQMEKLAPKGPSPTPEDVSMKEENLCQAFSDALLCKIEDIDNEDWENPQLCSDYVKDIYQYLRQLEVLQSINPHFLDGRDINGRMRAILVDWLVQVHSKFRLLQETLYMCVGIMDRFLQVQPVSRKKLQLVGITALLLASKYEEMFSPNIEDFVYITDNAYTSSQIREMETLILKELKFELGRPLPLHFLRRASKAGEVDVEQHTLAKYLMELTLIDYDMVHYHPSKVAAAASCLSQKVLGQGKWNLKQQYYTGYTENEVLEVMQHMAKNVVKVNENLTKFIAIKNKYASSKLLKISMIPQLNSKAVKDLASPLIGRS

Row | IC50 [1] | IC50 [2] | Structure (SMILES) | GI50 (NCI)
1 | 13 µM | – | c1nc(OCC2CCCCC2)c2nc[nH]c2n1 | 55 µM
2 | > 10 µM | > 10 µM | Nc1cc(OCC2CCCCC2)nc(N)n1 | > 100 µM
3 | > 100 µM | – | Cn1cnc2c(OCC3CCCCC3)nc(N)nc21 | > 100 µM
